Reference: patent publication US20130123107A1, “Use of Adjuvants to Improve Abscisic Acid Performance” (Valent BioSciences Corporation, priority 2007, published 2013)

Experiments:
Crimson seedless grapes = assay: grape coloring field study, ABA with or without Brij 98; assay type: in vivo; details: for Harvest yield (%): harvest at 64 days after treatment, yield percent with sufficient color
Procedure: A grape coloring field study was conducted at Caruthers, Calif. ABA alone at 100 or 200 ppm or its combination with 0.05% Brij 98 was foliar applied to Crimson seedless grapes. Number of clusters with color was counted on a weekly basis, beginning at 21 days after treatment. Percentage of clusters with color was calculated. Grape yield was harvested at 64 days after treatment.
(§1) All experiments were conducted using a randomized complete block experimental design. Data were analyzed by analysis of variance. Duncan's new multiple range tests at α-005 were used for mean separations.
The effect of 0.05% Brij 98 on ABA (100 or 200 ppm) performance in grape coloration was examined in the field (Table 12). Addition of Brij 98 increased the percent of clusters with color for ABA at 100 or 200 ppm after application and increased the harvest yield percent with sufficient color. Treatment with 200 ppm ABA had more colored clusters and yield.

[1] = test system: tomato leaf transpiration; assay: tomato leaf transpiration inhibition bioassay; assay type: in vivo, Tomato (variety: Rutgers)
From the text: The compositions of the present invention improve ABA effectiveness by incorporating a surfactant, and optionally a nitrogen-containing fertilizer together with an effective amount of the plant growth regulator abscisic acid (S-ABA; ABA; S-(+)-abscisic acid; +-ABA, (+)-(S)-cis, trans-abscisic acid, (+)-(S)-cis,trans-ABA; S-ABA; (S)-5-(1-hydroxy-2,6,6,-trimethyl-4-oxo-2-cyclohexen-1-yl)-3-methyl-(2Z,4E)-pentadienoic acid; CAS registry no, [21293-29-8]). ABA effectiveness may be measured experimentally by quantifying the inhibition of transpiration in tomato leaves. This is a reliable laboratory bioassay of the level of ABA activity.
Preparation of plant specimens for use in the treatment studies of the examples described was carried out as follows. Tomato (variety: Rutgers) seeds were sown in an 18-cell flat filled with Promix PGX (available from Premier Horticulture Inc. Quakertown, Pa.) and grown for 3 weeks to allow for germination and initial growth. Plants were then transplanted into pots (18 cm in diameter and 18 cm in height), filled with Promix BX (available from Premier Horticulture Inc. Quakertown, Pa.), and grown for one or two more weeks before treatment, depending on temperature and available light. Plants received daily irrigation and weekly fertilizer (1 g/L all purpose fertilizer 20-20-20, available from The Scotts Company, Marysville, Ohio).
All treatment solutions were prepared with distilled water, ABA (95% active ingredient) is available from Lomon BioTechnology Co., Ltd. (Shichuan, China). […]
Unless otherwise specified, when a surfactant was employed, it was incorporated into the 250-ppm ABA treatment solution at a concentration of 0.05% to 0.5% (v/v).
ABA solutions and blank treatments were applied to the aerial parts of tomato plant leaves at the rate of 20 mL per 6 plants. Plants were then placed in a transparent chamber with humidity controlled within the range of 40 to 60% relative humidity. Leaf transpiration rates were measured at 1, 2 and 3 days; at 1, 2, 3 and 4 days; or at 1, 2, 3, 4 and 7 days after treatment. Measurements were conducted using a LI-1600 Steady State Porameter (LI-Cor, Lincoln, Nebr.). Each day the transpiration rate of the plants of each treatment group was normalized to the percentage of the transpiration rate of untreated plants (plants sprayed with water only) in order to control for day-to-day variability caused by changes of environmental conditions such as light intensity and temperature. In some cases, data of each plant was averaged over a 3-day period to balance the short term and long-term effect of ABA on tomato leaf transpiration as well as to control for experimental variability.
as §1

In the case of “(S)-5-(1-hydroxy-2,6,6,-trimethyl-4-oxo-2-cyclohexen-1-yl)-3-methyl-(2Z,4E)-pentadienoic acid [ABA]”, the “% clusters with color” value (Crimson seedless grapes; 100 ppm ABA foliar applied, 21 days after application) is reported as 1.8%, the “% clusters with color” value (Crimson seedless grapes; 100 ppm ABA foliar applied, 27 days after application) is reported as 2.7% and the “% clusters with color” value (Crimson seedless grapes; 100 ppm ABA foliar applied, 35 days after application) is reported as 5.7%. The “% clusters with color” value (Crimson seedless grapes; 100 ppm ABA foliar applied, 43 days after application) was 7.5%, the “% clusters with color” value (Crimson seedless grapes; 100 ppm ABA foliar applied, 50 days after application) was 9.4% and the “% clusters with color” value (Crimson seedless grapes; 100 ppm ABA foliar applied, 56 days after application) was 26.1%. For the same substance, the “% clusters with color” value (Crimson seedless grapes; 100 ppm ABA foliar applied, 62 days after application) was 26.2%, the “% clusters with color” value (Crimson seedless grapes; 100 ppm ABA foliar applied, 64 days after application) was 31.2% and the “Harvest yield (%)” value (Crimson seedless grapes; 100 ppm ABA foliar applied) was 25.5%. For the same substance, the “% clusters with color” value (Crimson seedless grapes; 200 ppm ABA foliar applied, 21 days after application) was 7.0%, the “% clusters with color” value (Crimson seedless grapes; 200 ppm ABA foliar applied, 27 days after application) was 10.7% and the “% clusters with color” value (Crimson seedless grapes; 200 ppm ABA foliar applied, 35 days after application) was 17.3%. For the same substance, the “% clusters with color” value (Crimson seedless grapes; 200 ppm ABA foliar applied, 43 days after application) was 20.5%, the “% clusters with color” value (Crimson seedless grapes; 200 ppm ABA foliar applied, 50 days after application) was 22.7% and the “% clusters with color” value (Crimson seedless grapes; 200 ppm ABA foliar applied, 56 days after application) was 47.9%. The “% clusters with color” value (Crimson seedless grapes; 200 ppm ABA foliar applied, 62 days after application) was 50.3%, the “% clusters with color” value (Crimson seedless grapes; 200 ppm ABA foliar applied, 64 days after application) was 56.4% and the “Harvest yield (%)” value (Crimson seedless grapes; 200 ppm ABA foliar applied) was 49.1%. For the same substance, the “Transpiration rate (% of control)” value ([1]; 125 ppm ABA, average of first 3 days after treatment) was 96 % of control, the “Transpiration rate (% of control)” value ([1]; 250 ppm ABA or ABA ammonium salt, 1 day after treatment (Table 7)) was 73 % of control and the “Transpiration rate (% of control)” value ([1]; 250 ppm ABA or ABA ammonium salt, 2 days after treatment (Table 7)) was 76 % of control. The “Transpiration rate (% of control)” value ([1]; 250 ppm ABA or ABA ammonium salt, 3 days after treatment (Table 7)) was 94 % of control, the “Transpiration rate (% of control), Average” value ([1]; 250 ppm ABA or ABA ammonium salt, average of days 1-3 after treatment (Table 7)) was 81 % of control and the “Transpiration rate (% of control)” value ([1]; 250 ppm ABA or salt at rate equivalent to 250 ppm ABA, 1 day after treatment (Table 8)) was 71 % of control. The “Transpiration rate (% of control)” value ([1]; 250 ppm ABA or salt at rate equivalent to 250 ppm ABA, 2 days after treatment (Table 8)) was 75 % of control, the “Transpiration rate (% of control)” value ([1]; 250 ppm ABA or salt at rate equivalent to 250 ppm ABA, 3 days after treatment (Table 8)) was 88 % of control and the “Transpiration rate (% of control), Average” value ([1]; 250 ppm ABA or salt at rate equivalent to 250 ppm ABA, average of days 1-3 (Table 8)) was 78 % of control. For the same substance, the “Transpiration rate (% of control)” value ([1]; 250 ppm ABA or salt at rates equivalent to 250 ppm ABA, 1 day after treatment (Table 10)) was 59 % of control, the “Transpiration rate (% of control)” value ([1]; 250 ppm ABA or salt at rates equivalent to 250 ppm ABA, 2 days after treatment (Table 10)) was 71 % of control and the “Transpiration rate (% of control)” value ([1]; 250 ppm ABA or salt at rates equivalent to 250 ppm ABA, 3 days after treatment (Table 10)) was 77 % of control. The “Transpiration rate (% of control), Average” value ([1]; 250 ppm ABA or salt at rates equivalent to 250 ppm ABA, average of days 1-3 (Table 10)) was 69 % of control, the “Transpiration rate (% of control)” value ([1]; 250 ppm ABA, 1 day after treatment (Table 2)) was 76 % of control and the “Transpiration rate (% of control)” value ([1]; 250 ppm ABA, 1 day after treatment (Table 5)) was 82 % of control. The “Transpiration rate (% of control)” value ([1]; 250 ppm ABA, 1 day after treatment (Table 6)) was 71 % of control, the “Transpiration rate (% of control)” value ([1]; 250 ppm ABA, 1 day after treatment (Table 11)) was 83 % of control and the “Transpiration rate (% of control)” value ([1]; 250 ppm ABA, 1 day after treatment (Table 13)) was 74 % of control. For the same substance, the “Transpiration rate (% of control)” value ([1]; 250 ppm ABA, 1 day after treatment (Table 14)) was 74 % of control, the “Transpiration rate (% of control)” value ([1]; 250 ppm ABA, 2 days after treatment (Table 2)) was 99 % of control and the “Transpiration rate (% of control)” value ([1]; 250 ppm ABA, 2 days after treatment (Table 5)) was 91 % of control. The “Transpiration rate (% of control)” value ([1]; 250 ppm ABA, 2 days after treatment (Table 6)) was 84 % of control, the “Transpiration rate (% of control)” value ([1]; 250 ppm ABA, 2 days after treatment (Table 11)) was 85 % of control and the “Transpiration rate (% of control)” value ([1]; 250 ppm ABA, 2 days after treatment (Table 14)) was 82 % of control. For the same substance, the “Transpiration rate (% of control)” value ([1]; 250 ppm ABA, 3 days after treatment (Table 2)) was 93 % of control, the “Transpiration rate (% of control)” value ([1]; 250 ppm ABA, 3 days after treatment (Table 5)) was 90 % of control and the “Transpiration rate (% of control)” value ([1]; 250 ppm ABA, 3 days after treatment (Table 6)) was 86 % of control. The “Transpiration rate (% of control)” value ([1]; 250 ppm ABA, 3 days after treatment (Table 11)) was 94 % of control, the “Transpiration rate (% of control)” value ([1]; 250 ppm ABA, 3 days after treatment (Table 13)) was 95 % of control and the “Transpiration rate (% of control)” value ([1]; 250 ppm ABA, 3 days after treatment (Table 14)) was 95 % of control. The “Transpiration rate (% of control)” value ([1]; 250 ppm ABA, 4 days after treatment (Table 5)) was 100 % of control, the “Transpiration rate (% of control)” value ([1]; 250 ppm ABA, 4 days after treatment (Table 6)) was 90 % of control and the “Transpiration rate (% of control)” value ([1]; 250 ppm ABA, 4 days after treatment (Table 13)) was 100 % of control. For the same substance, the “Transpiration rate (% of control)” value ([1]; 250 ppm ABA, 4 days after treatment (Table 14)) was 100 % of control, the “Transpiration rate (% of control), Average” value ([1]; 250 ppm ABA, average of days 1-3 (Table 11)) was 87 % of control and the “Transpiration rate (% of control)” value ([1]; 250 ppm ABA, average of first 3 days after treatment (Table 1)) was 88 % of control. The “Transpiration rate (% of control)” value ([1]; 250 ppm ABA, average of first 3 days after treatment (Table 3)) was 83 % of control, the “Transpiration rate (% of control)” value ([1]; 250 ppm ABA, average of first 3 days after treatment (Table 4)) was 96.32 % of control and the “Transpiration rate (% of control)” value ([1]; 250 ppm ABA, average of first 3 days after treatment (Table 9)) was 73 % of control. The “Transpiration rate (% of control)” value ([1]; 500 ppm ABA, average of first 3 days after treatment) was 74 % of control, the “Transpiration rate (% of control)” value ([1]; 1000 ppm ABA, average of first 3 days after treatment) was 68 % of control and the “ABA concentrations to achieve 50% inhibition of transpiration” value ([1]; calculated from linear regression of relative transpiration (3-day average) on log10 ABA concentration) was 3328 ppm.
